EC50 data for 84 molecules are collected here from PubChem BioAssay AID2765 (Broad Institute, 2010).

The experiment relates to MEF A1-2A-BIM cells, caspase 3/7 luminescence, 3 h. The experiment is described as follows: inducers of caspase signal in A1-dependent MEFs – cell-based, luminescence, retest, A1 inhibitor project, dose response (AID 2765).

Activity calls are given as the source filed them.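 The calls were made as follows: active = half-maximal concentration for the rise in caspase light signal at or below ten times the top tested dose; inconclusive = flat fit between 30% and 70% activity, or unreliable curve fit; inactive = the rest.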

Consider `CCCc1cc(=O)oc2c(C)c(OCC(=O)Nc3ccc(CN4CCOCC4)cc3)ccc12`, for which the EC50 (in general, the midpoint of the concentration-response curve) was > 35 µM (inactive). As to `CC(C)CCNC(=O)c1cc(-c2ccncc2)nc2ccc(S(=O)(=O)N3CCOCC3)cc12`, the EC50 was > 35 µM (inactive). In the case of `Nc1nc(Cl)nc2c1ncn2[C@H]1C[C@H](O)[C@@H](CO)O1`, the EC50 was > 35 µM (inactive). As for `CC(C)C(OC(=O)c1cc2c(s1)CCCCC2)C(=O)NC(N)=O` (centres undefined), the EC50 is > 35 µM (inactive).

In the case of `O=C(NCc1ccco1)/C(=C/c1ccc([N+](=O)[O-])cc1)NC(=O)c1ccco1`, the EC50 is > 35 µM (inactive). Turning to `CCC(C)Nc1nnc(SCC(=O)c2c(N)n(C3CC3)c(=O)[nH]c2=O)s1` (centres undefined), the EC50 was > 35 µM (inactive). Take `COc1ccc(S(=O)(=O)Nc2c(NC3CCCCC3)c3ccccc3oc2=O)cc1OC`: the EC50 was > 35 µM (inactive). As for `CCCn1cc(S(=O)(=O)c2ccc(C)cc2)c(=O)c2cc(OC)c(OC)cc21`, the EC50 was > 35 µM (inactive).

For the molecule `CCCCn1c(N2CCCC2)nc2c1c(=O)[nH]c(=O)n2C`, the EC50 is > 35 µM (inactive). Under `FC(F)(F)c1ccc(Cl)c(NC2=NCCCCC2)c1` stands > 35 µM (inactive); under `O=C1C2CCCN2C(c2cccc(Br)c2)N1c1ccc(F)cc1` (centres undefined), > 35 µM (inactive). For `O=C(c1cc(C2CC2)nn1-c1ccccc1)N1CCN(S(=O)(=O)c2cccc(F)c2)CC1`, the EC50 is > 35 µM (inactive). Under `Cc1nc(-c2ccc(F)cc2)c(CC(=O)N(C)CC(=O)Nc2ccccc2Cl)s1` stands > 35 µM (inactive); under `COc1ccc(-c2ccc(NS(=O)(=O)c3cc([N+](=O)[O-])c(C)c([N+](=O)[O-])c3)cc2)nn1`, > 35 µM (inactive); under `O=C(N/N=C/c1ccc(Cl)cc1Cl)c1ccc2nc[nH]c2c1`, > 35 µM (inactive). As to `CCOc1ccccc1NC(=O)Nc1cc(OC)ccc1OC`, the EC50 is > 35 µM (inactive). For the molecule `CCCCN1C(=O)C(NC(C)=O)c2cc(Br)ccc21` (centres undefined), the EC50 is > 35 µM (inactive).

With `CN(C(=O)CSc1nnc(C(F)(F)F)n1N)C1CCS(=O)(=O)C1` (centres undefined), the EC50 was > 35 µM (inactive).

Regarding `CN1C(C(=O)Nc2cccc(O)c2)=CC(c2ccco2)=NS1(=O)=O`, the EC50 was > 35 µM (inactive). For `COc1ccc(C[C@H]2NC[C@H](O)[C@H]2OC(C)=O)cc1`, the EC50 is > 35 µM (inactive). Under `CCCN1CCN(CCCNC(=O)CCCn2nc(C)c3sc4ccccc4c3c2=O)CC1` stands > 35 µM (inactive); under `O=C(N/N=C/c1ccco1)c1cc(-c2cccc(Br)c2)nc2ccccc12`, > 35 µM (inactive). Next, `O=C(COC(=O)/C=C/c1cccc(Cl)c1Cl)Nc1ccc2[nH]c(=O)[nH]c2c1`: > 35 µM (inactive); `Cc1ccc(S(=O)(=O)c2nnn3c2nc(Nc2cccc(C)c2)c2ccccc23)cc1`: > 35 µM (inactive); `Cc1ccc(OCCC(=O)Nc2ccc(C)c(F)c2)cc1`: > 35 µM (inactive). Regarding `CSc1ccc(CNC(=O)Cn2nc(C)c3c(C)n(-c4ccc(C)cc4)nc3c2=O)cc1`, the EC50 is > 35 µM (inactive).

For the molecule `O=C(CNC(=O)c1ccc(Br)cc1)NC1CC1`, the EC50 was > 35 µM (inactive). Under `CCCNC(=O)c1ccc2c(=O)c(O)c(-c3ccsc3)[nH]c2c1` stands > 35 µM (inactive).

Take `COc1ccc(N2CC(C(=O)N[C@H](C(=O)NC(C)c3ccccc3)C(C)C)CC2=O)cc1` (some centres undefined): the EC50 was > 35 µM (inactive).

Regarding `CCOC(=O)C(C(=O)OCC)C(C(=O)OCC)N1CCOCC1` (centres undefined), the EC50 is > 35 µM (inactive).

With `Cc1cc(C)c(S(=O)(=O)N2CCCCCC2)cc1Br`, the EC50 is > 35 µM (inactive). Under `C/C(=N\NC(=O)CCC(=O)NCc1ccccc1)c1ccco1` stands > 35 µM (inactive). As for `NC(N)=N/N=C/c1cccc([N+](=O)[O-])c1O`, the EC50 was > 35 µM (inactive).

With `COC(=O)c1c(NC(=O)C2CC(C)=C(C)CC2C(=O)O)sc2c1CCCCC2` (centres undefined), the EC50 is > 35 µM (inactive). As for `CC1CC(C)CN(C(=O)CCCn2c(=S)[nH]c3ccccc3c2=O)C1` (centres undefined), the EC50 was > 35 µM (inactive). Next, `CN(Cc1ccc(F)cc1)C(=O)CNC(=O)C1CCCCC1`: > 35 µM (inactive); `COc1cc(CN2CCNC(=O)C2CC(=O)N(C)CCCN2CCOCC2)cc(OC)c1` (centres undefined): > 35 µM (inactive); `COc1ccc(C(=O)Sc2ccc(Cl)cc2)cc1OC`: > 35 µM (inactive). With `O=C(CN1C(=O)COc2ccccc21)NCCCN1CCc2ccccc2C1`, the EC50 is > 35 µM (inactive). Next, `COCCCN(C(=O)Nc1ccccc1)C(C)c1ccncc1` (centres undefined): > 35 µM (inactive); `COc1ccc(NC(=O)CSc2nc3ccc(Nc4nc(N5CCOCC5)nc(N5CCOCC5)n4)cc3s2)cc1`: > 35 µM (inactive). Next, `O=[N+]([O-])c1ccc(CN2CCOCCOCCOCC2)cc1`: > 35 µM (inactive).

Take `CCCCn1c(=O)[nH]c(=O)c2c1nc(Cn1ncc(Cl)c(Cl)c1=O)n2CCC`: the EC50 was > 35 µM (inactive). Under `CCS(=O)(=O)c1nc2ccccc2n1Cc1ccccc1Cl` stands > 35 µM (inactive); under `FC(F)(F)c1ccc(Sc2n[nH]c(C(F)(F)F)n2)nc1`, > 35 µM (inactive); under `CCOC(=O)c1ccc(-c2ccc(/C=N/NC(=O)CN(c3cccc(C)c3)S(C)(=O)=O)o2)cc1`, 24 µM. As to `O=C(NC(Cc1ccccc1)C(=O)N1CCCCCC1)c1ccccc1` (centres undefined), the EC50 is > 35 µM (inactive). As for `Oc1ccc(/C=N/N2CCN(C3c4ccccc4-c4ccccc43)CC2)cc1O`, the EC50 is > 35 µM (inactive). Under `CC(C)CC(NC(N)=O)C(=O)OCC(=O)Nc1ccc(SC(F)F)cc1` (centres undefined) stands > 35 µM (inactive); under `Cc1cc(C2C(C#N)=C(N)SC(N)=C2C#N)c(C)s1`, > 35 µM (inactive); under `COC(=O)C1=C(C(=O)OC)[C@@H]2N(C)c3ccc(OC)cc3[C@@]23C[C@@H](C(=O)OC)N(C(=O)c2ccco2)C3=N1`, > 35 µM (inactive). With `O=C(CCCOc1ccc(Cl)cc1Cl)Nc1ncccn1`, the EC50 is > 35 µM (inactive). Next, `CC1(C)c2cc(O)ccc2OC1N1CCOCC1` (centres undefined): > 35 µM (inactive); `CCOc1nc2c(c(-c3cccs3)c1C#N)Cc1ccccc1-2`: > 35 µM (inactive). For `Cc1cc(C)n(CCC(=O)N/N=C/c2ccc(Cl)c([N+](=O)[O-])c2)n1`, the EC50 is > 35 µM (inactive). Under `CCc1cccc(NC(=O)C2CCN(S(=O)(=O)c3ccc4c(c3)NC(=O)CO4)CC2)c1` stands > 35 µM (inactive). Under `OCc1ccc(OCCCOc2cccc3cccnc23)cc1` stands > 35 µM (inactive); under `COc1cc(-c2cc(-c3ccccc3)nc(SCC(=O)Nc3nccs3)c2C#N)cc(OC)c1OC`, > 35 µM (inactive); under `O=C(c1ccccc1)N1CCN(S(=O)(=O)c2ccccc2)CC1`, > 35 µM (inactive).

For the molecule `COc1ccccc1NC(=O)CC1COc2ccccc2O1` (centres undefined), the EC50 is > 35 µM (inactive). As to `CC(C)CN(C(=O)C1CSC2(C)CCC(=O)N12)c1c(N)n(Cc2ccccc2)c(=O)[nH]c1=O` (centres undefined), the EC50 is > 35 µM (inactive). In the case of `C[C@@]12C(=O)OC(=O)[C@]1(C)C1CCC2O1`, the EC50 was > 35 µM (inactive). Next, `COc1ccc(C(=O)NNC(=O)CSc2nc3c(c(=O)n(C)c(=O)n3C)n2C)cc1`: > 35 µM (inactive); `COc1ccc(C(O)Cc2nccn2C)cc1` (centres undefined): > 35 µM (inactive); `COc1cc(NC(=O)c2cccs2)ccc1NC(=O)c1cc2ccccc2o1`: > 35 µM (inactive). Under `Cc1cc(C(=O)Nc2cccc3c2O[C@@H](CN(C)S(=O)(=O)c2ccccc2)[C@H](C)CN([C@@H](C)CO)C3=O)n(C)n1` stands > 35 µM (inactive); under `CN1C(=O)[C@H]2[C@@H](C3CC3)N3C(=O)CN(Cc4ccc(-c5ccccc5)cc4)C(=O)[C@@]3(C)[C@H]2C1=O`, > 35 µM (inactive); under `COc1ccc(CN2CCCCC2C)cc1C` (centres undefined), > 35 µM (inactive).

`COc1ccc(CC(=O)Nc2ccc3c(c2)CCC3)cc1S(=O)(=O)N1CCOCC1`: the EC50 was > 35 µM (inactive).

In the case of `O=C(N/N=C\c1cccc(Cl)c1)c1ccc(Cn2cccn2)o1`, the EC50 is > 35 µM (inactive). Under `O=C(CSc1nnc(-c2ccncc2)o1)Nc1ccc(F)c(F)c1` stands > 35 µM (inactive); under `CCn1nnc(NC(=O)Cc2ccc(Cl)cc2)n1`, > 35 µM (inactive); under `C=C1C(O)[C@@H]2O[C@]3(CC[C@H](/C=C/C(C)[C@@H]4CC(C)=CC5(O[C@H](C[C@@](C)(O)CO)CCC5O)O4)O3)CC[C@H]2O[C@@H]1C(O)CC(C)[C@H]1OC2(CCCCO2)CCC1C` (some centres undefined), > 35 µM (inactive).

Take `CN1CCN(c2nccc3c2ncn3C)CC1`: the EC50 is > 35 µM (inactive). For the molecule `Nc1cn(C2OC(CO)C(O)C2O)c(=O)[nH]c1=O` (centres undefined), the EC50 is > 35 µM (inactive). As for `Cc1cccc(NC(=O)CSc2nnc(CNC(=O)c3ccc(S(=O)(=O)N(C)C)cc3)n2-c2ccc(F)cc2)c1`, the EC50 is > 35 µM (inactive).

Consider `CC1=NNC(=O)/C1=C\c1cn(-c2ccccc2)nc1-c1cccs1`, for which the EC50 is 15.1 µM. On to `O=C1C(=O)N(Cc2ccco2)C(c2cccs2)/C1=C(\O)c1cccc([N+](=O)[O-])c1` (centres undefined), for which the EC50 is > 35 µM (inactive).

In the case of `CN1CCN(CCCNC(=O)c2ccc3c(Cl)c4c(nc3c2)CCCC4)CC1`, the EC50 is > 35 µM (inactive). Next, `Cc1sc(NC(=O)CSC2=NCCS2)nc1-c1ccccc1`: > 35 µM (inactive); `CCOC(=O)[C@@H]1[C@H]2COc3ccc(Br)cc3[C@H]2N2C(=O)N(c3ccc(Cl)cc3)C(=O)[C@@]12C`: > 35 µM (inactive); `O=C(O)CCN1CCc2ccccc2C1c1ccncc1` (centres undefined): > 35 µM (inactive). Next, `CN(C(=O)c1ccc(NC(=O)C2CCCN(C(=O)OC(C)(C)C)C2)cc1)C1CC1` (centres undefined): > 35 µM (inactive); `Cc1ccc(C(O)(CCN2CCCCC2)c2ccccc2)cc1` (centres undefined): > 35 µM (inactive).
